# Read-outs that look alike come from different tables or passages of the source.
# Legend:
# [1] = target: T1, STS isolated from the human placenta (Homo sapiens, UniProt P08842); assay: radioisotope enzymatic assay with STS isolated from human placenta and [3H]E1S; type: biochemical; conditions: for remaining activity at 0.5 µM: read-out: residual STS activity [%]
# T1 construct: radioisotope enzymatic assay using STS isolated from the human placenta; from tissue; host or cells: human placenta
# T1 sequence (P08842 22-583): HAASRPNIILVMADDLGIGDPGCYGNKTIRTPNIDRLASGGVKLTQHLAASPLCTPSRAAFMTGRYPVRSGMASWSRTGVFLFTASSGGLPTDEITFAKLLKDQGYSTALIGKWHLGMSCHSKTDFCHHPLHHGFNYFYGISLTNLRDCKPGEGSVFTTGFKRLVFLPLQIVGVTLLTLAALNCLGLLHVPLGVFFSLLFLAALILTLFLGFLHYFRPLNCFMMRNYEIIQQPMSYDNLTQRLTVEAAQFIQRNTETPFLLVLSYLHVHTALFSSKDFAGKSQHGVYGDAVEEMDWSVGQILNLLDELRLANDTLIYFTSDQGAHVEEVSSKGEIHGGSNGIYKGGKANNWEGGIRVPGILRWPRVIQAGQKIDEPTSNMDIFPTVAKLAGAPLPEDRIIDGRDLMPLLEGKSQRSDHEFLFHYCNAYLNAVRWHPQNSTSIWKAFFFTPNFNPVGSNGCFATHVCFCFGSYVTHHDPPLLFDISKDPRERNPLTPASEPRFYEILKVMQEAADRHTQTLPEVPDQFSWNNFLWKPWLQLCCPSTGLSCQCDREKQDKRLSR
# Description: The inhibitory potency of the synthesized compounds was examined in two ways, including an enzymatic assay and the radioisotope cellular test. The enzymatic assay was performed using the STS enzyme isolated from human placenta and using radiolabeled [^3H]E1S as a substrate.
# The total volume of the reaction mixture was 100 μL. […] After incubation, the reaction mixture (90 μL) was collected from each well, and the product formed by STS hydrolysis was extracted with toluene (0.5 mL). STS activity was measured using a MicroBeta radioluminometer (PerkinElmer). Enzymatic assays were carried out in triplicate.
# [2] = target: T2, STS in MCF-7 cells (Homo sapiens, UniProt P08842); assay: radioisotope cellular assay with [3H]E1S in MCF-7 cells; type: cell-based; conditions: for remaining activity at 0.001 µM / remaining activity at 0.01 µM / remaining activity at 0.1 µM: MCF7, 20 h; for remaining activity at 0.001 µM: read-out: residual STS activity [%] 1 nM; for remaining activity at 0.01 µM: read-out: residual STS activity [%] 10 nM; for remaining activity at 0.1 µM: read-out: residual STS activity [%] 100 nM; for IC50: MCF-7 cells, substrate [3H]E1S, 3 nM
# T2 construct: The radioisotope cellular assay was performed using the MCF-7 cell line; endogenous in cells; host or cells: MCF-7
# T2 sequence (P08842 22-583): T1 sequence (P08842 22-583)
# Description: All compounds were initially tested for their in cell inhibitory action at a 100 nM concentration.
# The inhibitory potency of the synthesized compounds was examined in two ways, including an enzymatic assay and the radioisotope cellular test. […] The radioisotope cellular assay was performed using the MCF-7 cell line in the presence of radiolabeled [^3H]E1S.
# The evaluation of the inhibitory effect of each compound with breast cancer cells was performed using a previously described method (27) with some modifications. MCF-7 cells were maintained in Dulbecco’s modified Eagle medium supplemented with 10% fetal bovine serum and cultured in the above medium until 80% confluence. […] After incubation, the medium (0.45 mL) was collected from each well, and the product formed by STS hydrolysis was extracted with toluene (4 mL). STS activity was measured using a MicroBeta radioluminometer (PerkinElmer). Assays with MCF-7 cells were carried out in triplicate.
# [3] = type: in vivo; conditions: Table S1, MTD study, 50 mg/kg
# Description: The mice were thus weighed, and their general health was observed. […] At the end of the study, the mice were sacrificed by dislocation of the cervical vertebrae, and the internal organs were examined macroscopically.
# The mice were weighed, and their general health was observed. […] At the end of the MTD study, the autopsy was performed, and the internal organs (liver, kidney, and spleen) were weighed and macroscopically assessed.
# [4] = test system: 67NR mouse mammary tumor cells; assay: antitumor activity in 67NR orthotopic mouse breast carcinoma model; type: in vivo, BALB/c mice; conditions: for tumor growth inhibition (TGI): 5 days a week, 67NR tumor, N = 9, vs control group
# Description: The tumor volume (TV) and body weight were measured three times a week. Results for individual groups are reported in Figure S5, Supporting Information. Based on TV data, the tumor growth inhibition (TGI) was calculated for groups that received compounds and compared to that of the control group. […] The body weight of the treated animals was monitored during the study, and the body weight change (BWC) index was calculated (Figure 4). […] Body weight loss was observed between D2 and D11 and reached 4.5% at most.
# The growth of tumors has been observed.
# [5] = target: T3, STS activity in murine livers and tumors (Mus musculus, UniProt P50427); assay: determination of STS activity in murine livers and tumors of treated mice; conditions: for Residual STS activity [%] Liver: liver tissue of mice treated per os at 50 mg/kg b.w.; for Residual STS activity [%] Tumor: tumor tissue of mice treated per os at 50 mg/kg b.w.
# T3 sequence (P50427 23-624): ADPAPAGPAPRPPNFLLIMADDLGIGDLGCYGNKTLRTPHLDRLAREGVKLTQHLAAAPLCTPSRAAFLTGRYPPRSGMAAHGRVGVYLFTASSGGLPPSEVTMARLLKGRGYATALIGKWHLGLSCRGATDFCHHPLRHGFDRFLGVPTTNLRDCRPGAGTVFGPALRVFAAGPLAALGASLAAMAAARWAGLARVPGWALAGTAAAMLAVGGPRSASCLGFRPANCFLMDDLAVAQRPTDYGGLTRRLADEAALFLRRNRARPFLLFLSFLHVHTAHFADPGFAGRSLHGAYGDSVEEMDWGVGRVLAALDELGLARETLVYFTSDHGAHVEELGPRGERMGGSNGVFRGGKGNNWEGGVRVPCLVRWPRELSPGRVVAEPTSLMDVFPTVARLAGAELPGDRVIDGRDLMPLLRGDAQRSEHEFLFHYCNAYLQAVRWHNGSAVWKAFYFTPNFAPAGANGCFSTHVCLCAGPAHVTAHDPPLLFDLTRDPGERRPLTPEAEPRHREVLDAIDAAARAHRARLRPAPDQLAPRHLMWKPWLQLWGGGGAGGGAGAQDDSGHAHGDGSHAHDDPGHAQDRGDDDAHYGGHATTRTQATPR
# Description: Then, the samples were subjected to sonication in five cycles of 10 s each and centrifuged for 10 min at 14 000g to pellet the tissue debris. Total protein concentrations were determined in the obtained lysates using the Bradford method, and 100 μg of the total protein was used for each reaction as a source of STS activity. […] E1S (4 × 10^4 Bq, 3 nM) and 20 mM Tris-HCl, pH 7.4. The volume of the reaction mixtures was adjusted to 100 μL with water. After incubation, 60 μL of each reaction mixture was collected, and the product formed by STS hydrolysis was extracted with toluene (0.5 mL). STS activity was measured using a MicroBeta radioluminometer (PerkinElmer). Assays were carried out in triplicate.
# [6] = blood morphology, blood biochemistry and organ weights of mice with 67NR tumor; conditions: for spleen weight: 50 mg/kg b.w. per os; for spleen weight / ALT / AST / creatinine / urea: mice with 67NR tumor; for HCT / HGB / MCH / MCHC / MCV / MPV / PCT / PDW / PLT / RBC / RDW: Table S2, mice with 67NR tumor, 50 mg/kg; for ALT / AST / creatinine / urea: Table S3, plasma, 50 mg/kg per os, N=9
# Description: At the end of the study, the autopsy of the animals was performed: blood was collected for further analyses of the morphology (Table S2, Supporting Information) and biochemistry (Table S3 and Figure S6, Supporting Information) and for the determination of the plasma estradiol level using the ELISA method.
# Mice were injected orthotopically (in the mammary gland fat pad) with 67NR mouse mammary tumor cells derived from in vitro culture (1.5 × 10^5 cells/0.05 mL Hanks fluid/mouse). The growth of tumors has been observed. […] Animals were observed during the next 17 days and euthanized. During observation, body weight and tumor growth were monitored three times a week. The volume of the tumors was calculated according to the following formula: TV = a^2·b/2 [mm^3], (where: a—width and b—length of the tumor). Blood, tumor tissue, and liver were harvested during autopsy for further analyses. Blood aliquots (about 500 μL) were collected in EDTA containing vials for morphology analysis (Mythic 18 analyzer, Orphee), and then, the plasma was collected (centrifuged at 2500g for 15 min at 4 °C within 1 h after collection) for biochemical parameter analysis (Cobas c111, Roche).
# [7] = 50 mg/kg b.w. per os, nine mice/group
SMILES,remaining activity at 0.5 µM [1] [%],remaining activity at 0.001 µM [2] [%],remaining activity at 0.01 µM [2] [%],remaining activity at 0.1 µM [2] [%],IC50 [2] [nM],GRAN [3],HCT [3],HGB [3],LIMF [3],MCH [3],MCHC [3],MCV [3],MON [3],PLT [3],RBC [3],RDW [3],WBC [3],"mice responded to the treatment [4, 7] [mice]","mice with tumor volume reduced by approx. 50% compared to the TV control [4, 7] [mice]",Residual STS activity [%] Liver [5],also measured
"NS(=O)(=O)Oc1ccc(-c2cn(-c3cccc(Cl)c3)nn2)cc1 [4a, 4-(1-(3-Chlorophenyl)-1H-1,2,3-triazol-4-yl)phenyl Sulfamate]",19.5 ± 0.97,38.2,28.1 ± 1.12,2.4 ± 0.07,1.9 ± 0.06,"13,2±3,6%","41±0,2%","15,1±0,2 g/dL","83,5±4,1%","17,3±0,3 pg","36,9±0,5 g/dL","46,8±0,2 fL","3,3±0,6%",518±49 10x3/uL,"8,8±0,1 10x6/uL","17,9±0,6%","4,5±0,3 10x3/uL",7,5,"12,1%","body weight of treated tumor-bearing mice (observation) ([4]; 50 mg/kg b.w. per os): A body weight increase was observed; tumor growth inhibition (TGI) ([4]; 50 mg/kg b.w. per os): 47%; mice with much larger tumor than the mean control volume [4, 7]: 1 mice; Residual STS activity [%] Tumor [5]: 5,8%; spleen weight [6]: Significantly smaller spleens weights; HCT [6]: 35,9±3,2%; HGB [6]: 13,5±1,1 g/dL; MCH [6]: 17,7±0,5 pg; MCHC [6]: 37,6±0,7 g/dL; MCV [6]: 47,1±1 fL; MPV [6]: 4,9±0,1 fL; PCT [6]: 0,250±0,03%; PDW [6]: 24,9±3 fL; PLT [6]: 503,3±59,8 x103/uL; RBC [6]: 7,6±0,8 x106/uL; RDW [6]: 18±0,5%; ALT [6]: 27,3±3,9 U/L; AST [6]: 91,7±15,4 U/L; creatinine [6]: 5,75±1,52 umol/L; urea [6]: 7,92±0,66 mmol/L"
"NS(=O)(=O)Oc1ccc(-c2cn(-c3cc(Cl)cc(Cl)c3)nn2)cc1 [4b, 4-(1-(3,5-Dichlorophenyl)-1H-1,2,3-triazol-4-yl)phenyl Sulfamate]",13.3,63.7 ± 2.55,17.8 ± 0.62,2 ± 0.1,1.71 ± 0.05,"11,0±1,7%","44,1±1,3%","16,4±0,6 g/dL","85,7±1,7%","17,4±0,01 pg","37,1±0,4 g/dL","46,9±0,5 fL","3,3±0,5%",533±34 10x3/uL,"9,4±0,4 10x6/uL","17,5±0,6%","5,1±1,6 10x3/uL",7,5,"14,5%","residual STS activity [%] ([1]; 0.5 μM inhibitor concentration, substrate [3H]E1S, 3 nM, triplicate): 13.32 ± 0.67%; side effects and toxicity ([4]; 50 mg/kg): no evidence of side effects and toxicity; body weight of treated tumor-bearing mice (observation) ([4]; 50 mg/kg b.w. per os): A body weight increase was observed; Residual STS activity [%] Tumor [5]: 5,1%; spleen weight [6]: Significantly smaller spleens weights; HCT [6]: 36,6±2,7%; HGB [6]: 13,7±0,9 g/dL; MCH [6]: 17,6±0,5 pg; MCHC [6]: 37,6±0,6 g/dL; MCV [6]: 46,8±0,9 fL; MPV [6]: 4,9±0,2 fL; PCT [6]: 0,248±0,03%; PDW [6]: 27,1±3,2 fL; PLT [6]: 512,2±72,3 x103/uL; RBC [6]: 7,8±0,7 x106/uL; RDW [6]: 18,2±0,5%; ALT [6]: 27,1±3,8 U/L; AST [6]: 86,6±18,5 U/L; creatinine [6]: 4,53±1,48 umol/L; urea [6]: 6,94±0,69 mmol/L"
NS(=O)(=O)Oc1ccc(-c2cn(-c3cccc(F)c3)nn2)cc1 [5g],37.9 ± 1.9,57.3 ± 3.44,1,1 ± 0.04,1.69 ± 0.08,"12,4±1,7%","41,1±0,5%","15,2±0,2 g/dL","84,3±2,3%","17,2±0,2 pg","36,7±0,2 g/dL","46,9±0,3 fL","3,4±0,6%",522±33 10x3/uL,"8,8±0,01 10x6/uL","17,4±0,3%","4,9±1,3 10x3/uL",8,5,"13,6%","tumor growth inhibition (TGI) ([4]; 50 mg/kg b.w. per os): 42%; Residual STS activity [%] Tumor [5]: 5,2%; spleen weight [6]: Significantly smaller spleens weights; HCT [6]: 35±2,4%; HGB [6]: 13,5±0,9 g/dL; MCH [6]: 18,3±0,9 pg; MCHC [6]: 38,6±0,6 g/dL; MCV [6]: 47,4±2,8 fL; MPV [6]: 5±0,1 fL; PCT [6]: 0,255±0,04%; PDW [6]: 26,9±4,8 fL; PLT [6]: 508,6±69 x103/uL; RBC [6]: 7,4±0,7 x106/uL; RDW [6]: 19,1±1,5%; AST [6]: 102,2±23,1 U/L; creatinine [6]: 6,51±1,49 umol/L; urea [6]: 8,83±1,32 mmol/L"
